Assay results: PMC9575645 (Signal Transduction and Targeted Therapy, 2022)
Read-outs that look alike come from different tables or passages of the source.

What was measured:
MARC = test: Cytotoxicity, MTT assay, MARC; assay type: cell-based, African green monkey
Experimental: The cytotoxic effects of the chemicals and their solvents were tested by the MTT assay,[44] and its procedure is described in Supplementary Information.
The cytotoxic effects of the chemicals and their solvents used were tested by the MTT assay as described previously.^10 In brief, the chemicals were dissolved in DMSO to a stock concentration of 10 mM, and then freshly serially diluted in serum-free medium before being added to cell culture monolayers. The absorbance was measured using an enzyme-linked immunosorbent assay (ELISA) reader at an optical density (OD) of 570 nm. The percent cell viability was calculated using the following formula, [(ODsample˗ODblank)/(ODcontrol˗ODblank)] × 100%. According to the cell cytotoxicity data, dose-response curves were generated for the calculation of CC50 using GraphPad Prism software version 8.4.2.

[1] = In vivo toxicity in hamsters (body weight, gross and histopathological organ changes)
Experimental: Three groups of 3 hamsters were treated intraperitoneally with 20, 40, and 80 mg kg^-1 d^-1 of atglistatin prepared in a 100 μL vehicle [50% PEG400 in water (vol/vol)] Bid with a 12 h interval for four and a half consecutive days, respectively (Table S10). One group of 3 control anesthetized hamsters was administered intraperitoneally with 100 μL vehicle Bid with a 12 h interval for four and a half consecutive days (Table S10).
Histopathological changes in lungs, liver, kidney, heart, and spleen from the experimental mice or hamsters in each experimental group were determined as described elsewhere.^35 Briefly, each sample from the mice or hamsters in each experimental group was fixed in sufficient 10% neutral formalin at 20°C for 3-4 days, washed in tap water, then trimmed, and thereafter processed in the automatic embedding machine for the dehydration and paraffin embedment. Tissue sections, prepared on slides at a thickness of 3 μm by a microtome, were used for hematoxylin and eosin (H&E) staining or IHC as described below. H&E stained sections were observed under light microscopy. The morphological changes to lung, liver, kidney, heart, and spleen tissues were reviewed in a blinded manner as previous described.^35

SARS-CoV-2 KCDC03 strain = assay type: in vivo, Syrian hamsters
[2] = mouse, in vivo, ip

SMILES	CC50 (MARC) [µM]	toxicity, including body weight loss ([1]; 80 mg kg^-1 d^-1 atglistatin and 2.5 mg kg^-1 d^-1 remdesivir, singly or in combination)	gross and histopathological changes in major organs (liver, lung, kidney, heart, spleen) ([1]; 20, 40, or 80 mg kg^-1 d^-1 Bid for 4.5 consecutive days)	overt signs of toxicity, including loss of body weight ([1]; intraperitoneal 80 mg kg^-1 d^-1)	gross lung lesions (SARS-CoV-2 KCDC03 strain; […], different concentrations (20, 40, 80 mg kg^-1 d^-1))	FFA and glycerol release from LDs in lungs (SARS-CoV-2 KCDC03 strain; hamster, in vivo)	IFN-α and IFN-β production (SARS-CoV-2 KCDC03 strain; hamster, in vivo)	levels of TNF-α, IL-6, and MCP-1 (SARS-CoV-2 KCDC03 strain; hamster, in vivo)	reduction in lung lesions (SARS-CoV-2 KCDC03 strain; hamster, in vivo) [%]	overt signs of toxicity, including loss of body weight [2]
CN(C)C(=O)Nc1cccc(-c2ccc(N(C)C)cc2)c1 [Atglistatin]	212 ± 3.5	no toxicity	no gross and histopathological changes	did not induce any overt signs of toxicity	improved gross lung lesions in a dose-dependent manner	inhibition of FFA and glycerol release	no effect	reduced	72	–
COc1nn(-c2ccc(NC(=O)OCc3ccccc3)c(C)c2)c(=O)o1 [CAY10499]	101 ± 4	–	–	–	–	–	–	–	–	did not induce any overt signs of toxicity
